Experimental data taken from PubChem BioAssay (NCI).
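1) Cells in 96-well plates. 2) Compound, 48 h, 5 concentrations. 3) Linear interpolation between surrounding doses. 4) Unreached endpoint = highest concentration. GI50 marks 50% less growth. Definition used: TGI = concentration required for complete inhibition of growth.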

Tests used:
Assay in all cases: NCI anticancer screen, dose series, 48 h
A549 NSCLC = test system: A549 NSCLC
CCRF-CEM leukemia = test system: CCRF-CEM leukemia
HOP-92 NSCLC = test system: HOP-92 NSCLC
HS 578T breast = test system: HS 578T breast
LOX IMVI melanoma = test system: LOX IMVI melanoma
NCI-H226 lung = test system: NCI-H226 lung
NCI-H522 lung = test system: NCI-H522 lung
OVCAR-5 ovarian = test system: OVCAR-5 ovarian
RXF 393 renal = test system: RXF 393 renal
SK-MEL-5 melanoma = test system: SK-MEL-5 melanoma

SMILES: CCSCC1CC(O)(c2ccccc2)C(c2ccccc2)C(c2ccc(F)cc2)O1 (stereo not given)
- GI50 (A549 NSCLC): 2.15 µM
- TGI (A549 NSCLC): 6.35 µM
- GI50 (CCRF-CEM leukemia): 3.15 µM
- TGI (CCRF-CEM leukemia): 32.1 µM
- GI50 (HOP-92 NSCLC): 1.23 µM
- TGI (HOP-92 NSCLC): 3.15 µM
- GI50 (HS 578T breast): 1.83 µM
- TGI (HS 578T breast): 4.88 µM
- GI50 (LOX IMVI melanoma): 1.61 µM
- TGI (LOX IMVI melanoma): 3 µM
- GI50 (NCI-H226 lung): 1.97 µM
- TGI (NCI-H226 lung): 4.89 µM
- GI50 (NCI-H522 lung): 1.57 µM
- TGI (NCI-H522 lung): 4.84 µM
- GI50 (OVCAR-5 ovarian): 2.08 µM
- TGI (OVCAR-5 ovarian): 4.91 µM
- GI50 (RXF 393 renal): 1.87 µM
- TGI (RXF 393 renal): 3.57 µM
- GI50 (SK-MEL-5 melanoma): 1.47 µM
- TGI (SK-MEL-5 melanoma): 2.82 µM

SMILES: CCC(c1ccccc1)c1noc(CCN(CC)CC)n1 (stereo not given)
- GI50 (A549 NSCLC): 42.1 µM
- TGI (A549 NSCLC): > 100 µM
- GI50 (CCRF-CEM leukemia): 28.5 µM
- TGI (CCRF-CEM leukemia): > 86.3 µM
- GI50 (HOP-92 NSCLC): 7.99 µM
- TGI (HOP-92 NSCLC): 49.6 µM
- GI50 (HS 578T breast): > 40.7 µM
- TGI (HS 578T breast): > 72.8 µM
- GI50 (LOX IMVI melanoma): 34.1 µM
- TGI (LOX IMVI melanoma): > 60.3 µM
- GI50 (NCI-H226 lung): 23.8 µM
- TGI (NCI-H226 lung): 70.9 µM
- GI50 (NCI-H522 lung): 2.98 µM
- TGI (NCI-H522 lung): 9.09 µM
- GI50 (OVCAR-5 ovarian): 17.1 µM
- TGI (OVCAR-5 ovarian): 35.6 µM
- GI50 (RXF 393 renal): 14.8 µM
- TGI (RXF 393 renal): 29 µM
- GI50 (SK-MEL-5 melanoma): 31.1 µM
- TGI (SK-MEL-5 melanoma): > 100 µM

SMILES: Nc1nccc(-c2c(-c3ccc(F)cc3)nn3cc(C(F)(F)F)ccc23)n1
- GI50 (A549 NSCLC): > 25 µM
- TGI (A549 NSCLC): > 25 µM
- GI50 (CCRF-CEM leukemia): > 25 µM
- TGI (CCRF-CEM leukemia): > 25 µM
- GI50 (HOP-92 NSCLC): 5.75 µM
- TGI (HOP-92 NSCLC): > 25 µM
- GI50 (HS 578T breast): > 25 µM
- TGI (HS 578T breast): > 25 µM
- GI50 (LOX IMVI melanoma): > 25 µM
- TGI (LOX IMVI melanoma): > 25 µM
- GI50 (NCI-H226 lung): > 25 µM
- TGI (NCI-H226 lung): > 25 µM
- GI50 (NCI-H522 lung): > 25 µM
- TGI (NCI-H522 lung): > 25 µM
- GI50 (OVCAR-5 ovarian): > 25 µM
- TGI (OVCAR-5 ovarian): > 25 µM
- GI50 (RXF 393 renal): > 25 µM
- TGI (RXF 393 renal): > 25 µM
- GI50 (SK-MEL-5 melanoma): > 25 µM
- TGI (SK-MEL-5 melanoma): > 25 µM

SMILES: COc1ccc(-c2nc3ccc(Cc4ccc5nc(-c6ccc(OC)cc6)[nH]c5c4)cc3[nH]2)cc1
- GI50 (A549 NSCLC): 0.0438 µM
- TGI (A549 NSCLC): 0.237 µM
- GI50 (CCRF-CEM leukemia): < 0.01 µM
- TGI (CCRF-CEM leukemia): 0.275 µM
- GI50 (HOP-92 NSCLC): 0.394 µM
- TGI (HOP-92 NSCLC): 2.26 µM
- GI50 (HS 578T breast): 0.0334 µM
- TGI (HS 578T breast): 2.52 µM
- GI50 (LOX IMVI melanoma): 0.0543 µM
- TGI (LOX IMVI melanoma): 0.217 µM
- GI50 (NCI-H226 lung): 0.475 µM
- TGI (NCI-H226 lung): 2.56 µM
- GI50 (NCI-H522 lung): 0.0171 µM
- TGI (NCI-H522 lung): 0.0535 µM
- GI50 (OVCAR-5 ovarian): 0.182 µM
- TGI (OVCAR-5 ovarian): 2.85 µM
- GI50 (SK-MEL-5 melanoma): 0.0193 µM
- TGI (SK-MEL-5 melanoma): 1.27 µM

SMILES: COc1cc(C(=O)/C=C/c2cccc(Nc3ccnc4cc(Cl)ccc34)c2)cc(OC)c1OC
- GI50 (A549 NSCLC): 1.48 µM
- TGI (A549 NSCLC): 3.91 µM
- GI50 (HOP-92 NSCLC): 1.47 µM
- TGI (HOP-92 NSCLC): 5.84 µM
- GI50 (HS 578T breast): 2.49 µM
- TGI (HS 578T breast): 14.2 µM
- GI50 (LOX IMVI melanoma): 0.373 µM
- TGI (LOX IMVI melanoma): 1.46 µM
- GI50 (NCI-H226 lung): 1.27 µM
- TGI (NCI-H226 lung): 2.95 µM
- GI50 (NCI-H522 lung): 0.594 µM
- TGI (NCI-H522 lung): 2.25 µM
- GI50 (OVCAR-5 ovarian): 1.7 µM
- TGI (OVCAR-5 ovarian): 3.29 µM
- GI50 (RXF 393 renal): 1.08 µM
- TGI (RXF 393 renal): 2.48 µM
- GI50 (SK-MEL-5 melanoma): 1.38 µM
- TGI (SK-MEL-5 melanoma): 2.67 µM

SMILES: CN(C)c1ccc(-c2cc(-c3ccc(Nc4nc(Nc5ccc(Cl)cc5)nc(Nc5ccc(Cl)cc5)n4)cc3)nc(N)c2C#N)cc1
- GI50 (A549 NSCLC): 13.9 µM
- TGI (A549 NSCLC): > 100 µM
- GI50 (CCRF-CEM leukemia): 2.59 µM
- TGI (CCRF-CEM leukemia): 36.5 µM
- TGI (HOP-92 NSCLC): 2.93 µM
- GI50 (HS 578T breast): 3.94 µM
- TGI (HS 578T breast): 59.3 µM
- GI50 (LOX IMVI melanoma): 18.9 µM
- TGI (LOX IMVI melanoma): > 100 µM
- GI50 (NCI-H226 lung): 3.58 µM
- TGI (NCI-H226 lung): 24.4 µM
- GI50 (NCI-H522 lung): 48.4 µM
- TGI (NCI-H522 lung): > 100 µM
- GI50 (OVCAR-5 ovarian): > 100 µM
- TGI (OVCAR-5 ovarian): > 100 µM
- GI50 (RXF 393 renal): 1.96 µM
- TGI (RXF 393 renal): 6.77 µM
- GI50 (SK-MEL-5 melanoma): 4.56 µM
- TGI (SK-MEL-5 melanoma): > 100 µM
